The source of these data is US20260295053A1, “COMPOUNDS FOR DEGRADATION AND INHIBITION OF KRAS (G12D) PROTEIN” (Shenzhen Ionova Life Science Co., Ltd., priority 2023, published 2026).

For experiment [1], the target named is T1, KRAS (G12D) (Homo sapiens, UniProt P01116, G12D).
T1 construct: in-cell western with KRAS G12D antibody after 24 h
As to the kind of experiment: KRAS (G12D) cellular degradation assay in AsPC-1 cells. In kind it is cell-based. Particulars: 24 hours, antibody fluorescence (Odyssey CLX), DC50 half-maximal degradation concentration. The procedure, abridged:
(§1)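 Half-maximal degradation (DC50) and inhibition (IC50) concentrations are fitted from dose-response curves spanning […] to 1.5 nM final. KRAS G12D loss is measured by fluorescent antibody staining with β-actin reference after 24 h; growth is measured by ATP luminescence after a 6-day exposure.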

The subject of experiment [2] is AsPC-1 cells. As to the kind of experiment: AsPC-1 cell proliferation assay (CellTiter Glo). It is filed as cell-based. Conditions: Homo sapiens, ASPC1, 144 h, 6 days. In short, it runs like this: as §1

T1 sequence (P01116 1-188 isoform P01116-2 G12D): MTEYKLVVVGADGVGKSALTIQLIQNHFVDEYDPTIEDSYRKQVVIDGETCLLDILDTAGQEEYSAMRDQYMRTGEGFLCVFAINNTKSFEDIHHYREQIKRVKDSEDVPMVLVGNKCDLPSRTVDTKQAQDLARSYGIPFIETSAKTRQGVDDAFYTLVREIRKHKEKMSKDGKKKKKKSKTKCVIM

What is called DC50 is the concentration giving 50% degradation. In general, IC50 refers to the concentration that inhibits the measured activity by half. Higher therefore signals lower potency. The molecule `CCn1nccc1-c1ccc([C@@H](NC(=O)[C@@H]2C[C@@H](O)CN2C(=O)[C@H](C(C)C)n2cc(-c3ccc(COc4c(-c5c(C)c(F)cc6[nH]ncc56)c(C5CC5)cc5c(N(C)[C@@H]6CCNC6)nc(OC[C@H](C)OC)nc45)cc3)nn2)[C@H](C)O)c2c1CC2` [Example 186, (2S,4R)-1-((2S)-2-(4-(4-(((6-cyclopropyl-7-(6-fluoro-5-methyl-1H-indazol-4-yl)-2-((S)-2-methoxypropoxy)-4-(methyl((R)-pyrrolidin-3-yl)amino)quinazolin-8-yl)oxy)methyl)phenyl)-1H-1,2,3-triazol-1-yl)-3-methylbutanoyl)-N-((1R,2S)-1-(5-(1-ethyl-1H-pyrazol-5-yl)bicyclo[4.2.0]octa-1(6),2,4-trien-2-yl)-2-hydroxypropyl)-4-hydroxypyrrolidine-2-carboxamide] showed a 50% degradation concentration (DC50) in experiment [1] of under 10 nM. Also, the half-maximal inhibitory concentration (IC50) in experiment [2] is under 10 nM.

In experiment [1], `CO[C@@H](C)COc1nc(N(C)[C@@H]2CCNC2)c2cc(C3CC3)c(-c3c(C)c(F)cc4[nH]ncc34)c(OCc3ccc(-c4cn([C@H](C(=O)N5C[C@H](O)C[C@H]5C(=O)N[C@H](c5ccc(-c6scnc6C)cc5)[C@H](C)O)C(C)C)nn4)cc3)c2n1` [Example 187, (2S,4R)-1-((2S)-2-(4-(4-(((6-cyclopropyl-7-(6-fluoro-5-methyl-1H-indazol-4-yl)-2-((S)-2-methoxypropoxy)-4-(methyl((R)-pyrrolidin-3-yl)amino)quinazolin-8-yl)oxy)methyl)phenyl)-1H-1,2,3-triazol-1-yl)-3-methylbutanoyl)-4-hydroxy-N-((1R,2S)-2-hydroxy-1-(4-(4-methylthiazol-5-yl)phenyl)propyl)pyrrolidine-2-carboxamide] gave a DC50 of under 10 nM. The IC50 in experiment [2] was under 10 nM.

The molecule `CO[C@@H](C)COc1nc(N2C[C@@H]3C[C@H]2CN3)c2cc(C3CC3)c(-c3c(C)c(F)cc4[nH]ncc34)c(OCc3ccc(-c4cn([C@H](C(=O)N5C[C@H](O)C[C@H]5C(=O)N[C@H](C#Cc5cc(C)cc6[nH]ncc56)CO)C(C)C)nn4)cc3)c2n1` [Example 188, (2S,4R)-1-((2S)-2-(4-(4-(((4-((1S,4S)-2,5-diazabicyclo[2.2.1]heptan-2-yl)-6-cyclopropyl-7-(6-fluoro-5-methyl-1H-indazol-4-yl)-2-((S)-2-methoxypropoxy)quinazolin-8-yl)oxy)methyl)phenyl)-1H-1,2,3-triazol-1-yl)-3-methylbutanoyl)-4-hydroxy-N—((R)-1-hydroxy-4-(6-methyl-1H-indazol-4-yl)but-3-yn-2-yl)pyrrolidine-2-carboxamide] had a DC50 in experiment [1] of 10 to 100 nM. In experiment [2], this molecule came in with an IC50 of 10 to 100 nM.

For the molecule `CO[C@@H](C)COc1nc(N2CCNCC[C@H]2C)c2cc(C3CC3)c(-c3c(C)c(F)cc4[nH]ncc34)c(OCc3ccc(-c4cn([C@H](C(=O)N5C[C@H](O)C[C@H]5C(=O)N[C@@H](CO)c5ccc(-c6scnc6C)cc5)C(C)C)nn4)cc3)c2n1` [Example 189, (2S,4R)-1-((2S)-2-(4-(4-(((6-cyclopropyl-7-(6-fluoro-5-methyl-1H-indazol-4-yl)-2-((S)-2-methoxypropoxy)-4-((R)-7-methyl-1,4-diazepan-1-yl)quinazolin-8-yl)oxy)methyl)phenyl)-1H-1,2,3-triazol-1-yl)-3-methylbutanoyl)-4-hydroxy-N—((R)-2-hydroxy-1-(4-(4-methylthiazol-5-yl)phenyl)ethyl)pyrrolidine-2-carboxamide], the DC50 in experiment [1] was under 10 nM. In addition, the 50% inhibitory concentration (IC50) in experiment [2] is under 10 nM.
